Results taken from patent US11566049B2, “Cyclic peptides and uses thereof” (LATERAL IP PTY LTD, priority 2018, dated 2023).
Where “and” joins values, the source holds several entries; their conditions need not be identical. Equal entries are not always repeated. Entries after “also recorded” stand apart in the source; their conditions may differ. Positions of bridges follow the written chain, without caps; N, C: chain ends. No end group written: not given here.

What was measured:
dorsal horn neurons [1] = experiment: whole-cell recording of dorsal horn neurons in spinal cord slices from Chung models (Example 3); format: cell-based, rat; details: 5 μM; for Input Resistance, mean in presence of peptide / Membrane Potential, mean in presence of peptide: all cells; for Normalised Input Resistance / Normalised Input Resistance ΔIR: control = 100; for effect on membrane potential and activity of dorsal horn neurons: ipsilateral to injury; for Normalised Membrane Potential / Normalised Membrane Potential ΔVm: rest = 100; for ΔIR, change in neuronal input resistance: vs control, positive in table = reduction; for ΔVm, change in membrane potential: vs rest, positive in table = hyperpolarisation
Protocol: Spinal nerve ligation (Chung model; as described in Examples 1 and 2, above) was performed by a single tight ligation on the L5 spinal nerve. […] This animal model is often used as the “gold standard” for neuropathic pain.
(§1) Adult male Sprague-Dawley rats, weighing 220-250 g (aged 7 weeks and older) at the time of surgery, were used in this study. They were housed in groups of 4, in an air-conditioned room, on a 12-hour light/dark cycle with food and water available ad libitum. All experiments were performed in accordance with the U. K. Animals (Scientific Procedures) Act (1986).
(§2) The animals were housed in groups of 4 in an air-conditioned room on a 12-hour light/dark cycle. Food and water were available ad libitum. Animals were allowed to acclimatise to the environment for experiments for three days by leaving them on a raised metal mesh for at least 40 min. The baseline paw withdrawal threshold (PWT) was examined using a series of graduated von Frey hairs (see below) for 3 consecutive days before surgery and re-assessed on the 6th to 8th day after surgery and on the 12th to 14th day-after surgery before drag dosing.
(§3) Each rat was anaesthetized with 5% isoflurane mixed with oxygen (2 L per min) followed by an intramuscular (i.m.) injection of ketamine 90 mg/kg plus xylazine 10 mg/kg. The back was shaved and sterilized with povidone-iodine. The animal was placed in a prone position and a para-medial incision was made on the skin covering the L4-6 level. The L5 spinal nerve was carefully isolated and tightly ligated with 6/0 silk suture. The wound was then closed in layers after a complete haemostasis. A single dose of antibiotics (Amoxipen, 15 mg/rat, i.p.) was routinely given for prevention of infection after surgery. The animals were placed in a temperature-controlled recovery chamber until fully awake before being returned to their home cages.
The peptides of SEQ ID NO:27 (also referred to herein as LAT9993 Loop) and SEQ ID NO:28 (also referred to herein as LAT9993S or LAT9993 LoopS), were solubilised in distilled water and made up as concentrated stocks and stored frozen until the day of experiment when they were diluted to the required test concentrations in artificial cerebrospinal fluid (aCSF). The aCSF comprised (mM): NaCl, 127; KCl, 1.9; KH2PO4, 1.2; CaCl2, 2.4; MgCl2, 1.3; NaHCO3, 26; D-glucose, 10; equilibrated with 95% O2-5% CO2.
(§4) Ten to fourteen days after surgery, animals were placed in individual Perspex boxes on a raised metal mesh for at least 40 minutes prior to PWT testing. Starting with the filament of lowest force (1 g), each filament was applied perpendicularly to the centre of the ventral surface of the paw until slightly bent for 6 seconds. If the animal withdrew or lifted its paw upon stimulation, a von Frey hair with force immediately lower than that tested was subsequently used. If no response was observed, then a hair with force immediately higher was tested. The lowest amount of force required to induce reliable responses (positive in 2 out of 3 trials) was recorded as the value of PWT. Only animals showing significant mechanical allodynia (PWT≤3.5 g) were selected for subsequent electrophysiological experiments (see FIG. 5).
(§5) Once validation of a neuropathic state had been confirmed, animals were terminally anesthetized using isoflurane (Norvartis Animal Health UK Ltd.), cervically dislocated and decapitated. A laminectomy was performed and the spinal cord, with spinal roots and DRG attached, removed and cut into 250-450 μm thick slices using a Leica VT1000S vibrating microtome (Leica Microsystems UK, Milton Keynes, United Kingdom). Slices were maintained in artificial cerebrospinal fluid (aCSF) at room temperature for 1 hr after slicing before recording. For recording, individual slices were held between two grids in a custom-built chamber continuously perfused with aCSF at a rate of 4-10 ml.min^−1, illuminated from below, and viewed under a dissection microscope. […]

dorsal horn neurons [2] = experiment: whole-cell recording of dorsal horn neurons in spinal cord slices from Chung models (Example 4); format: cell-based, rat; details: 1 μM
Protocol: as §1, with “(aged/weeks” for “(aged 7 weeks”, “U.K.” for “U. K.”
as §2, with “They” for “Animals”, “day after” for “day-after”, “drug” for “drag”
as §3
LAT9993 LoopS (SEQ ID NO:28), SEQ11+LAT9993 Loop (SEQ ID NO:32; […]), SEQ25+LAT9993 Loop (SEQ ID NO:33; […]), LAT9993 SLoop A4 (SEQ ID NO:30), LAT9993 SLoop A7 (SEQ ID NO:31), LAT9993 SLoop A9 (SEQ ID NO:34; SCRSRPVEASC) and LAT9993 SLoop A10 (SEQ ID NO:35; SCRSRPVESAC), were solubilised in distilled water and made up as concentrated stocks and stored frozen until the day of experiment when they were diluted to the required test concentrations in artificial cerebrospinal fluid (aCSF), as described in Example 3, above.
as §4
as §5, with “microscope. The aCSF was of the following composition (mM): NaCl, 127; KCl, 1.9; KH2PO4, 1.2; CaCl2, 2.4; MgCl2, 1.3; NaHCO3, 26; D-glucose, 10; equilibrated with 95% O2-5% CO2.” for “microscope.”

Row | Sequence | dorsal root afferent-mediated EPSPs (dorsal horn neurons [1]) | Input Resistance, mean in presence of peptide (dorsal horn neurons [1]) | Membrane Potential, mean in presence of peptide (dorsal horn neurons [1]) | Normalised Input Resistance (dorsal horn neurons [1]) | Normalised Input Resistance ΔIR (dorsal horn neurons [1]) | effect on membrane potential and activity of dorsal horn neurons (dorsal horn neurons [1]) | Normalised Membrane Potential (dorsal horn neurons [1]) | Normalised Membrane Potential ΔVm (dorsal horn neurons [1]) | ΔIR, change in neuronal input resistance (dorsal horn neurons [1]) | ΔVm, change in membrane potential (dorsal horn neurons [1]) | other results
1 | CRSRPVESSC (disulfide 1-10 (inferred); listed as Homo sapiens) [LAT9993 Loop, cyclic peptide of formula (I), disulphide bond between the two cysteine residues] | suppression; also recorded: suppressed dorsal root afferent mediated excitatory synaptic transmission | 566.3±82.0 MΩ and 566.3 MΩ | −51.9±3.9 mV and −51.9 mV | 92.4 | 7.6 | marked membrane hyperpolarisation and inhibition of activity in 4 neurons; also recorded: little effect on a further 2 dorsal horn neurons | 107.2 | −7.2 | 51.6±75.3 MΩ and 51.6 MΩ | 3.5±1.1 mV and 3.5 mV | evoked inhibitory post-synaptic potentials (dorsal horn neurons [1]): little effect
2 | CRSRPVESSCS (disulfide 1-10 (inferred); listed as Homo sapiens) [LAT9993 LoopS, cyclic peptide of formula (I), disulphide bond between the two cysteine residues] | suppression of dorsal root afferent-mediated EPSPs, in one neurone selectively | 788±191.9 MΩ and 788.0 MΩ | −50.6±1.8 mV and −50.6 mV | 95.6 | 4.4 | membrane hyperpolarisation and inhibition of activity in 3 neurons; also recorded: little effect on a further 2 dorsal horn neurons; also recorded: principally induced inhibition of dorsal horn neurons or was without significant effect | 109.2 | −9.2 | 22.1±24.2 MΩ and 22.1 MΩ | 3.8±2 mV and 3.8 mV | dorsal root afferent-mediated EPSPs / synaptic inputs (words) (dorsal horn neurons [2]): either slightly suppressed dorsal root-evoked excitatory post-synaptic potentials (EPSPs) or had little effect; also recorded: little effect; Input Resistance, mean in presence of peptide (dorsal horn neurons [2]; all cells): 502.6±104.1 MΩ and 502.6 MΩ; Membrane Potential, mean in presence of peptide (dorsal horn neurons [2]; all cells): −44.7±4.3 mV and −44.7 mV; Normalised Input Resistance (dorsal horn neurons [2]; control = 100): 92.8; Normalised Input Resistance ΔIR (dorsal horn neurons [2]; control = 100): 7.2; effect on membrane potential and activity of dorsal horn neurons (dorsal horn neurons [2]; ipsilateral to injury): membrane hyperpolarisation and inhibition of activity in 1 neurone; also recorded: membrane depolarisation in the other two neurons; also recorded: small excitation of dorsal horn; dorsal root afferent-mediated EPSPs / synaptic inputs (words) (dorsal horn neurons [2]; listed as LAT9993 Loop S): little effect; Normalised Membrane Potential (dorsal horn neurons [2]; rest = 100): 91.5; Normalised Membrane Potential ΔVm (dorsal horn neurons [2]; rest = 100): 8.5; reversal potential of induced response (VI plots intersect) (dorsal horn neurons [2]; single cells): around −85 mV; ΔIR, change in neuronal input resistance (dorsal horn neurons [2]; vs control, in table positive = reduction, negative = increase): 28.7±34.9 MΩ and 28.7 MΩ; dorsal root afferent-mediated EPSPs (dorsal horn neurons [1]; listed as LAT999 LoopS): suppressed dorsal root-evoked excitatory posts-synaptic potentials (EPSPs) in two neurons; dorsal root afferent-mediated EPSPs (dorsal horn neurons [1]; listed as LAT9993S): suppression of EPSPs; also recorded: selectively suppressed; reversal potential of induced response (VI plots intersect) (dorsal horn neurons [1]; single cells): around −55 mV
